Data taken from patent US10124059B2, “Dimeric scaffold peptides comprising HIV-1 GP120 and GP41 epitopes” (priority 2011, dated 2018).
Ends that are not written are not given here.

Experiments:
[1] = test system: human PBMC; assay: Influenza specific M2e response by ELISPOT assay (B cell response in stimulated PBMC); assay type: cell-based
[2] = test system: BALB/c mice; assay: Serum IgG ELISA after vaccination of BALB/c mice; assay type: in vivo
Method: 100 μl of antigen as indicated (pre-incubated in Coating buffer—0.05M Na2CO3 pH9.6; denoted CB—in cold at 8 μg/ml 1-3 days) or just CB (background control) was used for coating wells in microtiter plates at 4° C. The microtiter plates are then washed 3× with washing buffer (PBS+1% v/v Triton-X100; denoted WB), followed by 2 h blocking at room temperature (RT) with 200 μl/well of blocking buffer (PBS+1% w/v BSA). Plates are then washed 3× with WB, followed by 1 h incubation at 37° C. with 50-70 ul/well of added human (or rabbit or sheep) sera (serial dilutions ranging from 1:5-1:250 in dilution buffer (PBS+1% v/v Triton-X100+1% w/v BSA; denoted DB)). […] Plates are finally quenched by adding 100 μl/well of Quench solution (0.1M TRIS+0.1M EDTA+0.5M NaOH+0.01% w/v NaN3; pH14), followed by a measurement with a ELISA reader (ASYS UVM 340) at 550 nm. […]

[3] = test system: sheep; assay: Serum IgG ELISA after vaccination of sheep; assay type: in vivo; conditions: for Dilution of serum three times background IgG response directed against BI100-cg2 antigen: 500 μg peptide in PBS; for Immune response in vaccinated sheep (in words): by itself or with two different standard adjuvants
Method: 100 μl of antigen as indicated (pre-incubated in Coating buffer—0.05M Na2CO3 pH9.6; denoted CB—in cold at 8 μg/ml 1-3 days) or just CB (background control) was used for coating wells in microtiter plates at 4° C. The microtiter plates are then washed 3× with washing buffer (PBS+1% v/v Triton-X100; denoted WB), followed by 2 h blocking at room temperature (RT) with 200 μl/well of blocking buffer (PBS+1% w/v BSA). Plates are then washed 3× with WB, followed by 1 h incubation at 37° C. with 50-70 ul/well of added human (or rabbit or sheep) sera (serial dilutions ranging from 1:5-1:250 in dilution buffer (PBS+1% v/v Triton-X100+1% w/v BSA; denoted DB)). Plates are then washed 6× with WB, followed by 1 h incubation at RT with 70 μl/well of Alkaline Phosphatase-conjugated Protein G (3 μg/ml in DB; Calbiochem 539305) or goat anti-mouse IgG biotin (1 μg/ml, Southern Biotech, 1030-08. In case of the goat anti-mouse IgG biotin, the plates were washed one extra step as described, before addition of 100 μl Streptavidin-Alkaline-Phosphatase (1 μg/ml, Sigma Aldrich, S289) and incubated 1 hour at RT. Plates are then washed 6× with WB, followed by 10-60 min incubation at room temperature with 100 μl/well of 0.3% w/v of Phenophtalein monophosphate (Sigma P-5758). Plates are finally quenched by adding 100 μl/well of Quench solution (0.1M TRIS+0.1M EDTA+0.5M NaOH+0.01% w/v NaN3; pH14), followed by a measurement with a ELISA reader (ASYS UVM 340) at 550 nm. The strength of the sera, i.e. the magnitude of the humoral immune response, is then reported as the dilution of sera that result in the described Optical Density (OD) value, or the OD value at the indicated dilution of sera.
The vaccination of sheep was done with 500 μg of peptide in PBS with the following adjuvants: ISA51 (vaccination week 1, 2, 3, 4, serum from week 6) and Freunds Adjuvant (vaccination weeks 1, 12, 26, serum from week 28). […] This indicate that the constructs can be combined with different adjuvants and induce an IgG response, a signal that an immunological memory has been elicited in sheep.

[4] = test system: New Zealand White female rabbits; assay: Rabbit immunizations with BI400-B vaccine, direct ELISA of sera; assay type: in vivo
Method: New Zealand White female rabbits (n=3) was immunized intradermally at weeks 0, 2 & 6 with 1 ml of BI400-B vaccine consisting of 500 μg BI400-B in 50% V/V Freund's adjuvant (i.e. Complete Freund's adjuvant used for priming, followed by boostings with Incomplete Freund's adjuvant). Individual blood serum was isolated for ELISA.
50-100 μl of BI400-B (pre-incubated in Coating buffer—0.05M Na2CO3 pH9.6; denoted CB—in cold at 16 μg/ml for each peptide 1-3 days prior to coating) or just CB (background control) is used for coating wells in microtiter plates at 4° C. overnight. The microtiter plates are then washed 3× with washing buffer (PBS+1% v/v Triton-X100; denoted WB), followed by 2 h blocking at room temperature (RT) with 200 μl/well of blocking buffer (PBS+1% w/v BSA). Plates are then washed 3× with WB, followed by 1 h incubation at 37° C. with 50-70 ul/well of added human (or rabbit) sera (serial dilutions ranging from 1:1-1:250 in dilution buffer (PBS+1% v/v Triton-X100+1% w/v BSA; denoted DB)). Plates are then washed 6× with WB, followed by 1 h incubation at RT with 70 μl/well of Alkaline Phosphatase-conjugated Protein G (3 μg/ml in DB; Calbiochem 539305). […] Plates are finally quenched by adding 100 μl/well of Quench solution (0.1M TRIS+0.1M EDTA+0.5M NaOH+0.01% w/v NaN3; pH14), followed by ELISA reader (ASYS UVM 340) at 550 nm.

[5] = Freunds Adjuvant, vaccination weeks 1, 12, 26, serum from week 28
[6] = ISA51, vaccination week 1, 2, 3, 4, serum from week 6

## [R][SLZTDIETP][Dpr(Aoa)][IDTPIR][G][TPIBQDWG] | [RR][IDTPIR][GG][TPI(Har)QEW][Dpr(Ser)][SLZTDIETPG] [BI150-2mod]
[1]; IgG
  IgG specific B cell response in human PBMC (in words): recognised by human memory cells
[1]; IgM
  IgM B cell proliferation in human PBMC (in words): able to induce proliferation of IgM B cells

## RRGNWAKVLKNWAKVI (SEQ ID NO: 130) | RRGLLADARVGCGSGADRVCS (SEQ ID NO: 131) (linker (positions not given here) via sulpho‑SMCC; also: sulpho-SMCC linker between Lys and Cys, places not given here) [BI350-1mod1, lysine of first peptide linked to cysteine of second peptide by a sulpho-SMCC linker]
[2]; IgG specific
  Immune response in vaccinated mice (in words): induced a specific immune response
[2]; s.c. 100 μg peptide + Alhydrogel at weeks 1, 3, 7, serum from week 9
  Serum IgG response (OD) directed against vaccine antigen, Mean (n = 6): 0.26 OD

## [WWGC][TDIET][CG][IDTPIR][G][TPIBQDWG] [BI100CGcyc]
[3]; [5]
  Dilution of serum three times background IgG response directed against BI100-cg2 antigen: 125
[3]; [6]
  Dilution of serum three times background IgG response directed against BI100-cg2 antigen: 25
[3]; adjuvant None
  Dilution of serum three times background IgG response directed against BI100-cg2 antigen: 25
[3]
  Immune response in vaccinated sheep (in words): induced an immune response

## [RR][SL(Nle)TDIETP][GCG][IDTPIR][G][TPIBQDWG] [BI100-CG]
[3]; [5]
  Dilution of serum three times background IgG response directed against BI100-cg2 antigen: 11000
[3]; [6]
  Dilution of serum three times background IgG response directed against BI100-cg2 antigen: 125
[3]; adjuvant None
  Dilution of serum three times background IgG response directed against BI100-cg2 antigen: 25
[3]
  Immune response in vaccinated sheep (in words): induced an immune response

## GAKRRVVGGCGGAKRRVVQREKRAGEREKRA (SEQ ID NO: 121) | GKGGIEEEGGRDRDRGGEQDRDR (SEQ ID NO: 122) (thioether (positions not given here); not fully specified (bridges)) [BI400-B, peptides linked via Cys and Lys residues (thioether)]
[4]; animal models
  Character of antibodies generated in animal models (in words): comparable with antibodies elicited in natural HIV infection
[4]; rabbits, intradermal 500 μg in Freund's adjuvant at weeks 0, 2 & 6
  Antibody response after immunization (in words): elicit an efficient antibody response
